Assay results published in patent US9969767B2, “Oxolupene derivatives” (priority 2014, dated 2018).

System: recombinant NL4-3 virus (Renilla luciferase in nef, Gag P373S)
Test: HIV Cell Culture Assay (luciferase reporter virus in MT-2 cells)
Type: cell-based
Details: NL43
Experimental: MT-2 cells and 293T cells were obtained from the NIH AIDS Research and Reference Reagent Program. MT-2 cells were propagated in RPMI 1640 media supplemented with 10% heat inactivated fetal bovine serum, […]. The 293T cells were propagated in DMEM media supplemented with 10% heat inactivated fetal bovine serum (FBS), 100 units/mL penicillin G and 100 μg/mL streptomycin. The proviral DNA clone of NL4-3 was obtained from the NIH AIDS Research and Reference Reagent Program. A recombinant NL4-3 virus, in which a section of the nef gene from NL4-3 was replaced with the Renilla luciferase gene, was used as a reference virus. In addition, residue Gag P373 was converted to P373S. Briefly, the recombinant virus was prepared by transfection of the altered proviral clone of NL4-3. Transfections were performed in 293T cells using LipofectAMINE PLUS from Invitrogen (Carlsbad, Calif.), according to manufacturer's instruction. The virus was titered in MT-2 cells using luciferase enzyme activity as a marker. Luciferase was quantitated using the Dual Luciferase kit from Promega (Madison, Wis.), with modifications to the manufacturer's protocol. The diluted Passive Lysis solution was pre-mixed with the re-suspended Luciferase Assay Reagent and the re-suspended Stop & Glo Substrate (2:1:1 ratio). Fifty (50) μL of the mixture was added to each aspirated well on assay plates and luciferase activity was measured immediately on a Wallac TriLux (Perkin-Elmer). Antiviral activities of inhibitors toward the recombinant virus were quantified by measuring luciferase activity in cells infected for 4-5 days with NLRluc recombinants in the presence serial dilutions of the inhibitor.

Q: `CC(C)C1=C2[C@H]3CC[C@@H]4[C@@]5(C)CC=C(C6=CC[C@](CF)(C(=O)O)CC6)C(C)(C)[C@@H]5CC[C@@]4(C)[C@]3(C)CC[C@@]2(NCCN2CCS(=O)(=O)CC2)CC1=O` [Example 9, (S)-4-((3aR,5aR,5bR,7aR,11aS,11bR,13aS)-3a-((2-(1,1-dioxidothiomorpholino)ethyl)amino)-1-isopropyl-5a,5b,8,8,11a-pentamethyl-2-oxo-3,3a,4,5,5a,5b,6,7,7a,8,11,11a,11b,12,13,13a-hexadecahydro-2H-cyclopenta[a]chrysen-9-yl)-1-(fluoromethyl)cyclohex-3-enecarboxylic acid] was tested. Which EC50 did it give?
A: < 0.1 µM

Q: How did the EC50 turn out when `CC(C)C1=C2[C@H]3CC[C@@H]4[C@@]5(C)CC=C(C6=CC[C@](CF)(C(=O)O)CC6)C(C)(C)[C@@H]5CC[C@@]4(C)[C@]3(C)CC[C@@]2(NCCN2CCC(S(C)(=O)=O)CC2)CC1=O` [Example 11, (S)-1-(fluoromethyl)-4-((3aR,5aR,5bR,7aR,11aS,11bR,13aS)-1-isopropyl-5a,5b,8,8,11a-pentamethyl-3a-((2-(4-(methylsulfonyl)piperidin-1-yl)ethyl)amino)-2-oxo-3,3a,4,5,5a,5b,6,7,7a,8,11,11a,11b,12,13,13a-hexadecahydro-2H-cyclopenta[a]chrysen-9-yl)cyclohex-3-enecarboxylic acid] was run?
A: < 0.1 µM

Q: For `CC(C)C1=C2[C@H]3CC[C@@H]4[C@@]5(C)CC=C(C6=CC[C@](CF)(C(=O)O)CC6)C(C)(C)[C@@H]5CC[C@@]4(C)[C@]3(C)CC[C@@]2(N)CC1=O` [Example 8, (S)-4-((3aR,5aR,5bR,7aR,11aS,11bR,13aS)-3a-amino-1-isopropyl-5a,5b,8,8,11a-pentamethyl-2-oxo-3,3a,4,5,5a,5b,6,7,7a,8,11,11a,11b,12,13,13a-hexadecahydro-2H-cyclopenta[a]chrysen-9-yl)-1-(fluoromethyl)cyclohex-3-enecarboxylic acid], which EC50 is on record?
A: < 0.1 µM

Q: `CC(C)C1=C2[C@H]3CC[C@@H]4[C@@]5(C)CC=C(C6=CCC(C(=O)O)CC6)C(C)(C)[C@@H]5CC[C@@]4(C)[C@]3(C)CC[C@@]2(C(=O)NCCN2CCOCC2)CC1=O` (stereo partly drawn) [Example 1, 4-((3aR,5aR,5bR,7aR,11aS,11bR,13aS)-1-isopropyl-5a,5b,8,8,11a-pentamethyl-3a-((2-morpholinoethyl)carbamoyl)-2-oxo-3,3a,4,5,5a,5b,6,7,7a,8,11,11a,11b,12,13,13a-hexadecahydro-2H-cyclopenta[a]chrysen-9-yl)cyclohex-3-enecarboxylic acid] was tested. Which EC50 did it give?
A: 0.00193 µM

Q: Which EC50 does the source give for `CC(C)C1=C2[C@H]3CC[C@@H]4[C@@]5(C)CC=C(C6=CC[C@](CF)(C(=O)O)CC6)C(C)(C)[C@@H]5CC[C@@]4(C)[C@]3(C)CC[C@@]2(NCC[N+]2(CCN3CCC(S(C)(=O)=O)CC3)CCC(S(C)(=O)=O)CC2)CC1=O` (stereo partly drawn) [Example 12, 1-(2-(((3aR,5aR,5bR,7aR,11aS,11bR,13aS)-9-((S)-4-carboxy-4-(fluoromethyl)cyclohex-1-en-1-yl)-1-isopropyl-5a,5b,8,8,11a-pentamethyl-2-oxo-3,3a,4,5,5a,5b,6,7,7a,8,11,11a,11b,12,13,13a-hexadecahydro-2H-cyclopenta[a]chrysen-3a-yl)amino)ethyl)-4-(methylsulfonyl)-1-(2-(4-(methylsulfonyl)piperidin-1-yl)ethyl)piperidin-1-ium] here?
A: < 0.1 µM

Q: `CC(C)C1=C2[C@H]3CC[C@@H]4[C@@]5(C)CC=C(c6ccc(C(=O)O)cc6)C(C)(C)[C@@H]5CC[C@@]4(C)[C@]3(C)CC[C@@]2(C(=O)O)CC1=O` [Example 3, (3aR,5aR,5bR,7aR,11aS,11bR,13aS)-9-(4-carboxyphenyl)-1-isopropyl-5a,5b,8,8,11a-pentamethyl-2-oxo-3,3a,4,5,5a,5b,6,7,7a,8,11,11a,11b,12,13,13a-hexadecahydro-2H-cyclopenta[a]chrysene-3a-carboxylic acid] was tested. Which EC50 did it give?
A: < 0.1 µM

Q: How did the EC50 turn out when `CC(C)C1=C2[C@H]3CC[C@@H]4[C@@]5(C)CC=C(C6=CC[C@](CF)(C(=O)O)CC6)C(C)(C)[C@@H]5CC[C@@]4(C)[C@]3(C)CC[C@@]2(C(=O)O)CC1=O` [Example 5, (3aR,5aR,5bR,7aR,11aS,11bR,13aS)-9-((S)-4-carboxy-4-(fluoromethyl)cyclohex-1-en-1-yl)-1-isopropyl-5a,5b,8,8,11a-pentamethyl-2-oxo-3,3a,4,5,5a,5b,6,7,7a,8,11,11a,11b,12,13,13a-hexadecahydro-2H-cyclopenta[a]chrysene-3a-carboxylic acid] was run?
A: < 0.1 µM

Q: With `CC(C)C1=C2[C@H]3CC[C@@H]4[C@@]5(C)CC=C(c6ccc(C(=O)O)cc6)C(C)(C)[C@@H]5CC[C@@]4(C)[C@]3(C)CC[C@@]2(C(O)CNCCN(C)C)CC1=O` (stereo partly drawn) [Example 14, 4-((3aR,5aR,5bR,7aR,11aS,11bR,13aS)-3a-(2-((2-(dimethylamino)ethyl)amino)-1-hydroxyethyl)-1-isopropyl-5a,5b,8,8,11a-pentamethyl-2-oxo-3,3a,4,5,5a,5b,6,7,7a,8,11,11a,11b,12,13,13a-hexadecahydro-2H-cyclopenta[a]chrysen-9-yl)benzoic acid] as the molecule, how does the EC50 read?
A: 0.00536 µM

Q: `CC(C)C1=C2[C@H]3CC[C@@H]4[C@@]5(C)CC=C(C6=CCC(C(=O)O)CC6)C(C)(C)[C@@H]5CC[C@@]4(C)[C@]3(C)CC[C@@]2(C(O)CN(CCN(C)C)Cc2ccc(Cl)cc2)CC1=O` (stereo partly drawn) [Example 15, 4-((3aR,5aR,5bR,7aR,11aS,11bR,13aS)-3a-(2-((4-chlorobenzyl)(2-(dimethylamino)ethyl)amino)-1-hydroxyethyl)-1-isopropyl-5a,5b,8,8,11a-pentamethyl-2-oxo-3,3a,4,5,5a,5b,6,7,7a,8,11,11a,11b,12,13,13a-hexadecahydro-2H-cyclopenta[a]chrysen-9-yl)cyclohex-3-enecarboxylic acid] was tested. Which EC50 did it give?
A: < 0.1 µM

Q: How did the EC50 turn out when `CC(C)C1=C2[C@H]3CC[C@@H]4[C@@]5(C)CC=C(C6=CCC(C(=O)O)CC6)C(C)(C)[C@@H]5CC[C@@]4(C)[C@]3(C)CC[C@@]2(N)CC1=O` (stereo partly drawn) [Example 7, 4-((3aR,5aR,5bR,7aR,11aS,11bR,13aS)-3a-amino-1-isopropyl-5a,5b,8,8,11a-pentamethyl-2-oxo-3,3a,4,5,5a,5b,6,7,7a,8,11,11a,11b,12,13,13a-hexadecahydro-2H-cyclopenta[a]chrysen-9-yl)cyclohex-3-enecarboxylic acid] was run?
A: 0.000973 µM

Q: With `CC(C)C1=C2[C@H]3CC[C@@H]4[C@@]5(C)CC=C(C6=CC[C@](CF)(C(=O)O)CC6)C(C)(C)[C@@H]5CC[C@@]4(C)[C@]3(C)CC[C@@]2(CNCCCN2CCS(=O)(=O)CC2)C=C1c1ccccc1` [Example 16, (S)-4-((3aR,5aR,5bR,7aR,11aS,11bR,13aS)-3a-(((3-(1,1-dioxidothiomorpholino)propyl)amino)methyl)-1-isopropyl-5a,5b,8,8,11a-pentamethyl-2-phenyl-4,5,5a,5b,6,7,7a,8,11,11a,11b,12,13,13a-tetradecahydro-3aH-cyclopenta[a]chrysen-9-yl)-1-(fluoromethyl)cyclohex-3-enecarboxylic acid] as the molecule, how does the EC50 read?
A: 0.00264 µM

Q: For `CC(C)C1=C2[C@H]3CC[C@@H]4[C@@]5(C)CC=C(C6=CC[C@](CF)(C(=O)O)CC6)C(C)(C)[C@@H]5CC[C@@]4(C)[C@]3(C)CC[C@@]2(CNCCCN2CCS(=O)(=O)CC2)CC1=O` [Example 13], which EC50 is on record?
A: < 0.1 µM

Q: How did the EC50 turn out when `CC(C)C1=C2[C@H]3CC[C@@H]4[C@@]5(C)CC=C(C6=CC[C@](CF)(C(=O)O)CC6)C(C)(C)[C@@H]5CC[C@@]4(C)[C@]3(C)CC[C@@]2(NCCN2CCS(=O)(=O)CC2)C=C1c1ccccc1` [Example 17, (S)-4-((3aR,5aR,5bR,7aR,11aS,11bR,13aS)-3a-((2-(1,1-dioxidothiomorpholino)ethyl)amino)-1-isopropyl-5a,5b,8,8,11a-pentamethyl-2-phenyl-4,5,5a,5b,6,7,7a,8,11,11a,11b,12,13,13a-tetradecahydro-3aH-cyclopenta[a]chrysen-9-yl)-1-(fluoromethyl)cyclohex-3-enecarboxylic acid] was run?
A: 0.109 µM

Q: For `CC(C)C1=C2[C@H]3CC[C@@H]4[C@@]5(C)CC=C(C6=CC[C@](CF)(C(=O)O)CC6)C(C)(C)[C@@H]5CC[C@@]4(C)[C@]3(C)CC[C@@]2(N(CCN2CCS(=O)(=O)CC2)CCN2CCS(=O)(=O)CC2)CC1=O` [Example 10, (S)-4-((3aR,5aR,5bR,7aR,11aS,11bR,13aS)-3a-(bis(2-(1,1-dioxidothiomorpholino)ethyl)amino)-1-isopropyl-5a,5b,8,8,11a-pentamethyl-2-oxo-3,3a,4,5,5a,5b,6,7,7a,8,11,11a,11b,12,13,13a-hexadecahydro-2H-cyclopenta[a]chrysen-9-yl)-1-(fluoromethyl)cyclohex-3-enecarboxylic acid], which EC50 is on record?
A: < 0.1 µM

Q: For `CC(C)C1=C2[C@H]3CC[C@@H]4[C@@]5(C)CC=C(C6=CCC(C(=O)O)CC6)C(C)(C)[C@@H]5CC[C@@]4(C)[C@]3(C)CC[C@@]2(C(=O)NCCN2CCS(=O)(=O)CC2)CC1=O` (stereo partly drawn) [Example 2, 4-((3aR,5aR,5bR,7aR,11aS,11bR,13aS)-3a((2-(1,1-dioxidothiomorpholino)ethyl)carbamoyl)-1-isopropyl-5a,5b,8,8,11a-pentamethyl-2-oxo-3,3a,4,5,5a,5b,6,7,7a,8,11,11a,11b,12,13,13a-hexadecahydro-2H-cyclopenta[a]chrysen-9-yl)cyclohex-3-enecarboxylic acid], which EC50 is on record?
A: < 0.1 µM
